Tests used:
Type in all cases: cell-based
[1] = system: human leukemia K562 cells; experiment: Inhibition of cell proliferation against human cancer cells (Alamar Blue), K562; details: 72 hours culture
Description: (§1) Human colon cancer WiDr cells or human leukemia K562 cells were inoculated into a 96-well test plate at a density of 5×10^3 cell/well and cultured at 37° C. in a […] incubator. Eighteen hours after the inoculation, the solvent (DMSO) diluted with the medium and various concentrations of the compound Q or R were added, and followed by further culture at 37° C. in a […] incubator for 72 hours. After the culturing, the proliferation of cells was measured with Alamar Blue (BIOSOURCE Co.). The measurement values for the conditions in which 0.1% DMSO and cells had been added, and 0.1% DMSO had been added and cells had not been added were assigned to be 0% inhibition and 100% inhibition, respectively, and the proliferation inhibition rate for each concentration of the compounds was obtained, then the concentration of inhibiting proliferation by 50% (IC50 value) was calculated by logistic regression.

[2] = system: acetylated histone H3 in K562 cells; experiment: Effect on inducing histone acetylation against human cancer cells (Western blot, anti-acetylated histone H3); details: 0.3 to 30 nM, 24 hours, in comparison with the sample treated with solvent
Description: After inoculating K562 cells into a 35 mm dish at a density of 1.5×10^6 cell/dish, the solvent (DMSO) and various concentrations (0.3 to 30 nM) of the compound Q or R were added and cultured at 37° C. in a […] incubator for 24 hours. Extraction of the histone protein was performed by the following method. To the cell precipitate collected by centrifugation, TEN buffer (10 mM Tris HCl (pH 8.0), 1 mM EDTA, 1% NP-40, 1 tablet/10 mL Complete mini (Roche Co.)) was added, stood on the ice for 10 minutes, and the supernatant was collected by centrifugation. The supernatant was mixed well with an equal amount of 0.4 M sulfuric acid, and stood on ice for 1 hour. The supernatant portion was collected by centrifugation, mixed with 5 times amount of acetone and stood at −20° C. for 12 hours or more. The precipitate was collected by centrifugation, washed once with acetone, and then the precipitate was dried. The precipitate was dissolved in distilled water, which was made to be histone protein, the protein concentration was determined by the Bradford method. […] For the primary antibody, an anti-acetylated histone H3 antibody (UPSTATE biotechnology Co.), for the secondary antibody, an HRP labeled anti-rabbit antibody (Amersham Pharmacia Biotech Co.) were used, and luminescence was detected by ECL (Amersham Pharmacia Biotech Co.).

[3] = system: Human colon cancer WiDr cells; experiment: Inhibition of cell proliferation against human cancer cells (Alamar Blue), WiDr; details: 72 hours culture
Description: as §1

Row | SMILES | IC50 [1] | bands of acetylated histone H3 (induction of histone acetylation) [2] | IC50 [3]
1 | CC1NC(=O)CC2/C=C/CCSSSCC(NC1=O)C(=O)NC(C(C)C)C(O)CC(=O)O2 (stereo not drawn) [compound Q] | 1.4 nM | significant and dose-dependent bands of acetylated histone H3 were detected | 3 nM
2 | CC1NC(=O)CC2/C=C/CCSSCC(NC1=O)C(=O)NC(C(C)C)C(O)CC(=O)O2 (stereo not drawn) [compound R] | 0.6 nM | significant and dose-dependent bands of acetylated histone H3 were detected | 0.9 nM

Reference: patent publication US7098186B2, “Depsipeptide compound” (Astellas Pharma INC, priority 2002, dated 2006)
